Paper PMC10458312, “Xanthones with Potential Anti-Inflammatory and Anti-HIV Effects from the Stems and Leaves of Cratoxylum cochinchinense” (Molecules, 2023)
Where two headings read alike, the source gives them in different places.

What was measured:
HIV-1IIIB = assay: Inhibition assay for the cytopathic effects of HIV-1 (syncytia formation) in C8166 cells; settings: for TI (therapeutic index) = CC50/EC50: CC50 in C8166 / EC50 against HIV-1; for EC50: Human immunodeficiency virus 1, C8166, 72 h, read-out: EC50 (50% effective concentration), anti-HIV-1
Protocol: All isolated xanthones 1–12 were assessed for their anti-HIV reverse transcriptase (RT) effects according to the inhibition assay for the cytopathic activities of HIV-1 (EC50) as well as the cytotoxic activities assay against C8166 cell line (CC50) according to MTT methods.
All isolated xanthones 1–12 were assessed for their anti-HIV-1 reverse transcriptase (RT) effects in vitro on the basis of the inhibition assay for the cytopathic effects of HIV-1 (EC50), in light of the protocol which is described in detail in the Supplementary Material of our current article, in which AZT (3′-azido-3′-deoxythymidine) was adopted as the positive control. All isolated xanthones 1–12 and the positive control (AZT) were also evaluated for their cytotoxic activities against C8166 cells (CC50) on the basis of the MTT method. […]
(§1) Anti-HIV-1 activity bioassays
Cytotoxicity against C8166 cells (CC50) was assessed using the MTT method, and anti-HIV-1 activity was evaluated by the inhibition assay for the cytopathic effects of HIV-1 (EC50). Briefly, cells were seeded on a microtiter plate in the absence or presence of various concentrations of compounds in triplicate and incubated at 37 °C in a humid atmosphere of 5% CO2 for three days.
20.0 μL MTT reagent (5.0 mg/mL in PBS) was added to each well, then incubated at 37 °C for 4 h, 50% DMF-20% SDS (100.0 μL) was added. After the formazan was dissolved completely, the plates were read on a Bio-Tek ELx 800 ELISA reader at 595 nm/630 nm (A595/630). The cytotoxic concentration that caused the reduction of viable cells by 50% (CC50) was calculated from dose–response curve. In 100.0 μL various concentrations of compounds, C8166 cells (4×10^5/mL) were infected with virus (HIV-1IIIB) at a multiplicity of infection (M. O. I) of 0.06. The final volume per well was 200.0 μL. Control assays were performed without the testing compounds in HIV-1IIIB infected and uninfected cultures. AZT (3′-azido-3′-deoxythymidine) was used as a positive control. After three days of culture, the cytopathic effect (CPE) was measured by counting the number of syncytia (multinucleated giant cell). Percentage inhibition of syncytia formation was calculated and 50% effective concentration (EC50) was calculated. The therapeutic index (TI) was calculated from the ratio of CC50/EC50.

[1] = tested on: NO production induced by lipopolysaccharide in mouse macrophage RAW 264.7 cells; assay: Inhibition of NO production induced by lipopolysaccharide in RAW 264.7 cells (Griess reaction); format: cell-based; settings: RAW264.7, LPS-induced RAW 264.7 cells, 24 h, mean ± SD of triplicate determinations, read-out: IC50 (50% inhibitory concentration on NO production)
[2] = MTT cytotoxicity assay against C8166 cells; format: cell-based; settings: human
Protocol: as §1
50% DMF-20% SDS (100.0 μL) was added. After the formazan was dissolved completely, the
volume per well was 200.0 μL. Control assays were performed without the testing compounds in
HIV-1IIIB infected and uninfected cultures. […]

[3] = C8166 cells, C8166 cell line, MTT, three days, read-out: CC50 (50% cytotoxic concentration)

SMILES | TI (therapeutic index) = CC50/EC50 (HIV-1IIIB) | EC50 (HIV-1IIIB) | IC50 [1] | CC50 at 3 days [2, 3] | CC50 at 3 days [2]
C[C@@H]1Oc2cc(O)c3c(=O)c4cc(O)c(O)c(O)c4oc3c2C1(C)C [Compound 7, 2-deprenyl-7-hydroxy-rheediaxanthone] | >48.08 | 4.16 µM | 12.58 ± 0.12 µM | > 200 µM | 
COc1c(O)cc2oc3cc(O)c(OC)c(OC)c3c(=O)c2c1O [Compound 12, 1,3,6-trihydroxy-2,7,8-trimethoxy-9H-xanthen-9-one] | >31.50 | 6.35 µM | 6.21 ± 0.08 µM | > 200 µM | 
COc1cc(O)c2c(=O)c3c(OC)c(OC)c(O)cc3oc2c1 [Compound 10, 3,8-dihydroxy-1,2,6-trimethoxy-9H-xanthen-9-one] | >74.91 | 2.67 µM | 7.47 ± 0.11 µM | > 200 µM | 
CC(C)=CCC/C(C)=C/Cc1c(O)c(CC=C(C)C)c(O)c2c(=O)c3c(O)ccc(O)c3oc12 [Compound 5, 1,3,5,8-tetrahydroxy-2-(3-methybut-2-enyl)-4-(3,7-dimethylocta-2,6-dienyl) xanthone] | >79.05 | 2.53 µM | 6.47 ± 0.1 µM | > 200 µM | 
CC1(C)c2c(cc(O)c3c(=O)c4ccc(O)c(O)c4oc23)O[C@H]1CO [Compound 6, cochinchinone P] | >64.94 | 3.08 µM | 8.35 ± 0.15 µM | > 200 µM | 
COc1cc2oc3c(O)ccc(OC)c3c(=O)c2c(O)c1OC [Compound 11, 1,5-dihydroxy-2,3,8-trimethoxy-9H-xanthen-9-one] | >17.81 | 11.2 µM | 3.16 ± 0.09 µM | > 200 µM | 
COc1cc2c(c3oc4c5c(ccc4c(=O)c13)OCO5)C=CC(C)(C)O2 [Compound 8, musaxanthone] | >22.45 | 8.91 µM | 4.16 ± 0.08 µM | > 200 µM | 
Cc1cn([C@H]2C[C@H](N=[N+]=[N-])[C@@H](CO)O2)c(=O)[nH]c1=O [AZT, 3′-azido-3′-deoxythymidine, reference compound] | 193,371.51 | 0.0208 µM |  |  | 4020 µM
COc1ccc2c(=O)c3cc(O)c(OC)c(O)c3oc2c1OC [Compound 4, Cratocochinone D] | >49.14 | 4.07 µM | 9.42 ± 0.13 µM | > 200 µM | 
COc1ccc2c(=O)c3c(O)cc4c(c3oc2c1O)C(C)(C)C(CO)O4 (stereo not shown) [Compound 2, Cratocochinone B] | >294.12 | 0.68 µM | 2.17 ± 0.09 µM | > 200 µM | 
COc1c(O)cc2oc3ccc(O)c(OC)c3c(=O)c2c1OC [Compound 9, 3,7-dihydroxy-1,2,8-trimethoxy-9H-xanthen-9-one] | >37.59 | 5.32 µM | 18.4 ± 0.21 µM | > 200 µM | 
C=C(C)C(O)CCC(C)=CCc1c(O)c(CC=C(C)C)c(O)c2c(=O)c3cc(O)ccc3oc12 (stereo not shown) [Compound 1, Cratocochinone A] | >909.09 | 0.22 µM | 1.29 ± 0.06 µM | > 200 µM | 
C[C@]12CCC(=O)C=C1CC[C@@H]1[C@@H]2[C@@H](O)C[C@@]2(C)[C@H]1CC[C@]2(O)C(=O)CO [Hydrocortisone, reference compound] |  |  | 4.08 ± 0.08 µM |  | 
COc1ccc2c(=O)c3c(OC)c(OC)c(O)cc3oc2c1O [Compound 3, Cratocochinone C] | >105.82 | 1.89 µM | 0.86 ± 0.05 µM | > 200 µM | 
